According to ChEMBL document CHEMBL2331144, “Synthesis and anticancer activity of analogues of phenstatin, with a phenothiazine A-ring, as a new class of microtubule-targeting agents” (Bioorg Med Chem Lett, 2013):

Columns and labels:
[1] = system: SF-295; assay: Growth inhibition of human SF295 cells after 48 hrs by sulforhodamine B assay; type: functional; conditions: SF-295, 48 h
[2] = system: SK-MEL-28; assay: Growth inhibition of human SK-MEL-28 cells after 48 hrs by sulforhodamine B assay; type: functional; conditions: SK-MEL-28, 48 h
[3] = system: HL-60(TB); assay: Growth inhibition of human HL-60(TB) cells after 48 hrs by sulforhodamine B assay; type: functional; conditions: HL-60, 48 h
[4] = system: HT-29; assay: Growth inhibition of human HT-29 cells after 48 hrs by sulforhodamine B assay; type: functional; conditions: HT-29, 48 h
[5] = Growth inhibition of human EKVX cells after 48 hrs by sulforhodamine B assay; type: functional
[6] = system: SF-268; assay: Growth inhibition of human SF268 cells after 48 hrs by sulforhodamine B assay; type: functional; conditions: SF-268, 48 h
[7] = system: A549; assay: Growth inhibition of human A549/ATCC cells after 48 hrs by sulforhodamine B assay; type: functional; conditions: A549, 48 h
[8] = system: CAKI-1; assay: Growth inhibition of human CAKI-1 cells after 48 hrs by sulforhodamine B assay; type: functional; conditions: CAKI-1, 48 h
[9] = system: Malme-3M; assay: Growth inhibition of human MALME-3M cells after 48 hrs by sulforhodamine B assay; type: functional
[10] = Growth inhibition of human NCI-ADR-RES cells after 48 hrs by sulforhodamine B assay; type: functional
[11] = system: 786-0; assay: Growth inhibition of human 786-0 cells after 48 hrs by sulforhodamine B assay; type: functional; conditions: 786-0, 48 h
[12] = organism: Ovis aries; assay: Inhibition of sheep brain tubulin polymerization at 100 uM using DAPI by fluorimetry
[13] = system: HCT-116; assay: Growth inhibition of human HCT116 cells after 48 hrs by sulforhodamine B assay; type: functional; conditions: HCT-116, 48 h
[14] = system: SK-OV-3; assay: Growth inhibition of human SKOV3 cells after 48 hrs by sulforhodamine B assay; type: functional; conditions: SK-OV-3, 48 h
[15] = system: OVCAR-3; assay: Growth inhibition of human OVCAR3 cells after 48 hrs by sulforhodamine B assay; type: functional; conditions: OVCAR-3, 48 h
[16] = Growth inhibition of human Hs 578T cells after 48 hrs by sulforhodamine B assay; type: functional
[17] = system: SF-539; assay: Growth inhibition of human SF539 cells after 48 hrs by sulforhodamine B assay; type: functional; conditions: SF-539, 48 h
[18] = system: PC-3; assay: Growth inhibition of human PC3 cells after 48 hrs by sulforhodamine B assay; type: functional; conditions: PC-3, 48 h
[19] = system: IGROV-1; assay: Growth inhibition of human IGROV1 cells after 48 hrs by sulforhodamine B assay; type: functional; conditions: IGROV-1, 48 h
[20] = system: MOLT-4; assay: Growth inhibition of human MOLT4 cells after 48 hrs by sulforhodamine B assay; type: functional; conditions: MOLT-4, 48 h
[21] = system: OVCAR-5; assay: Growth inhibition of human OVCAR5 cells after 48 hrs by sulforhodamine B assay; type: functional; conditions: OVCAR-5, 48 h
[22] = system: A498; assay: Growth inhibition of human A498 cells after 48 hrs by sulforhodamine B assay; type: functional; conditions: A498, 48 h
[23] = system: MDA-MB-231; assay: Growth inhibition of human MDA-MB-231 cells after 48 hrs by sulforhodamine B assay; type: functional; conditions: MDA-MB-231, 48 h
[24] = system: MCF7; assay: Growth inhibition of human MCF7 cells after 48 hrs by sulforhodamine B assay; type: functional; conditions: MCF7, 48 h
[25] = system: SR; assay: Growth inhibition of human SR cells after 48 hrs by sulforhodamine B assay; type: functional
[26] = system: M14; assay: Growth inhibition of human M14 cells after 48 hrs by sulforhodamine B assay; type: functional; conditions: M14, 48 h
[27] = system: HOP-92; assay: Growth inhibition of human HOP92 cells after 48 hrs by sulforhodamine B assay; type: functional; conditions: HOP-92, 48 h
[28] = system: NCI-H522; assay: Growth inhibition of human NCI-H522 cells after 48 hrs by sulforhodamine B assay; type: functional; conditions: NCI-H522, 48 h
[29] = system: UACC-257; assay: Growth inhibition of human UACC257 cells after 48 hrs by sulforhodamine B assay; type: functional; conditions: UACC-257, 48 h
[30] = system: RPMI-8226; assay: Growth inhibition of human RPMI8226 cells after 48 hrs by sulforhodamine B assay; type: functional; conditions: RPMI-8226, 48 h
[31] = system: K562; assay: Growth inhibition of human K562 cells after 48 hrs by sulforhodamine B assay; type: functional; conditions: K562, 48 h
[32] = system: SK-MEL-5; assay: Growth inhibition of human SK-MEL-5 cells after 48 hrs by sulforhodamine B assay; type: functional; conditions: SK-MEL-5, 48 h
[33] = system: HOP-62; assay: Growth inhibition of human HOP62 cells after 48 hrs by sulforhodamine B assay; type: functional; conditions: HOP-62, 48 h
[34] = system: COLO 205; assay: Growth inhibition of human COLO205 cells after 48 hrs by sulforhodamine B assay; type: functional; conditions: COLO 205, 48 h
[35] = Growth inhibition of human HCC2998 cells after 48 hrs by sulforhodamine B assay; type: functional; conditions: HCC 2998, 48 h
[36] = system: OVCAR-8; assay: Growth inhibition of human OVCAR8 cells after 48 hrs by sulforhodamine B assay; type: functional; conditions: OVCAR-8, 48 h
[37] = system: CCRF-CEM; assay: Growth inhibition of human CCRF-CEM cells after 48 hrs by sulforhodamine B assay; type: functional
[38] = system: LOX IMVI; assay: Growth inhibition of human LOXIMVI cells after 48 hrs by sulforhodamine B assay; type: functional
[39] = system: T47D; assay: Growth inhibition of human T47D cells after 48 hrs by sulforhodamine B assay; type: functional
[40] = system: RXF 393; assay: Growth inhibition of human RXF393 cells after 48 hrs by sulforhodamine B assay; type: functional; conditions: RXF 393, 48 h
[41] = system: SNB-75; assay: Growth inhibition of human SNB75 cells after 48 hrs by sulforhodamine B assay; type: functional; conditions: SNB-75, 48 h
[42] = system: NCI-H23; assay: Growth inhibition of human NCI-H23 cells after 48 hrs by sulforhodamine B assay; type: functional; conditions: NCI-H23, 48 h
[43] = system: BT-549; assay: Growth inhibition of human BT549 cells after 48 hrs by sulforhodamine B assay; type: functional; conditions: BT-549, 48 h
[44] = system: DU-145; assay: Growth inhibition of human DU145 cells after 48 hrs by sulforhodamine B assay; type: functional; conditions: DU-145, 48 h
[45] = system: SW-620; assay: Growth inhibition of human SW620 cells after 48 hrs by sulforhodamine B assay; type: functional; conditions: SW-620, 48 h
[46] = system: KM12; assay: Growth inhibition of human KM12 cells after 48 hrs by sulforhodamine B assay; type: functional; conditions: KM12, 48 h
[47] = system: MDA-MB-435; assay: Growth inhibition of human MDA-MB-435 cells after 48 hrs by sulforhodamine B assay; type: functional; conditions: MDA-MB-435, 48 h
[48] = system: UACC-62; assay: Growth inhibition of human UACC62 cells after 48 hrs by sulforhodamine B assay; type: functional; conditions: UACC-62, 48 h
[49] = system: HCT-15; assay: Growth inhibition of human HCT15 cells after 48 hrs by sulforhodamine B assay; type: functional; conditions: HCT-15, 48 h
[50] = system: ACHN; assay: Growth inhibition of human ACHN cells after 48 hrs by sulforhodamine B assay; type: functional
[51] = system: SN12C; assay: Growth inhibition of human SN12C cells after 48 hrs by sulforhodamine B assay; type: functional
[52] = system: NCI-H460; assay: Growth inhibition of human NCI-H460 cells after 48 hrs by sulforhodamine B assay; type: functional; conditions: NCI-H460, 48 h
[53] = system: TK-10; assay: Growth inhibition of human TK10 cells after 48 hrs by sulforhodamine B assay; type: functional; conditions: TK-10, 48 h
[54] = system: OVCAR-4; assay: Growth inhibition of human OVCAR4 cells after 48 hrs by sulforhodamine B assay; type: functional; conditions: OVCAR-4, 48 h
[55] = system: UO-31; assay: Growth inhibition of human UO31 cells after 48 hrs by sulforhodamine B assay; type: functional; conditions: UO-31, 48 h
[56] = Inhibition of sheep brain tubulin polymerization using DAPI by fluorimetry; set-up: species or system Ovis aries
[57] = system: SK-MEL-2; assay: Growth inhibition of human SK-MEL-2 cells after 48 hrs by sulforhodamine B assay; type: functional; conditions: SK-MEL-2, 48 h
[58] = system: MDA-MB-468; assay: Growth inhibition of human MDA-MB-468 cells after 48 hrs by sulforhodamine B assay; type: functional; conditions: MDA-MB-468, 48 h

## CCOC(=O)c1cc(C(=O)N2c3ccccc3Sc3ccccc32)n2c(C)cccc12
[1]
  GI50: 4.89 µM
[2]
  GI50: 3.5 µM
[3]
  GI50: 3.08 µM
[4]
  GI50: 2.95 µM
[5]
  GI50: 5.84 µM
[6]
  GI50: 7.11 µM
[7]
  GI50: 3.81 µM
[8]
  GI50: 6.23 µM
[9]
  GI50: 6.13 µM
[10]
  GI50: 2.17 µM
[11]
  GI50: 4.17 µM
[12]
  inhibition: 31%
[13]
  GI50: 2.89 µM
[14]
  GI50: 4.04 µM
[15]
  GI50: 4.24 µM
[16]
  GI50: 1.5 µM
[17]
  GI50: 4.13 µM
[18]
  GI50: 2.2 µM
[19]
  GI50: 5.78 µM
[20]
  GI50: 3.72 µM
[21]
  GI50: 65.8 µM
[22]
  GI50: 1.91 µM
[23]
  GI50: 6.04 µM
[24]
  GI50: 3.03 µM
[25]
  GI50: 2.42 µM
[26]
  GI50: 2.6 µM
[27]
  GI50: 2.69 µM
[28]
  GI50: 1.82 µM
[29]
  GI50: 3.24 µM
[30]
  GI50: 2.16 µM
[31]
  GI50: 3.78 µM
[32]
  GI50: 2.55 µM
[33]
  GI50: 6.14 µM
[34]
  GI50: 3.13 µM
[35]
  GI50: 6.71 µM
[36]
  GI50: 3.76 µM
[37]
  GI50: 2.39 µM
[38]
  GI50: 4.57 µM
[39]
  GI50: 4.16 µM
[40]
  GI50: 2.77 µM
[41]
  GI50: 1.88 µM
[42]
  GI50: 3.55 µM
[43]
  GI50: 2.93 µM
[44]
  GI50: 8.22 µM
[45]
  GI50: 3.14 µM
[46]
  GI50: 2.94 µM
[47]
  GI50: 0.672 µM
[48]
  GI50: 2.55 µM
[49]
  GI50: 4.52 µM
[50]
  GI50: 4.85 µM
[51]
  GI50: 5.53 µM
[52]
  GI50: 3.75 µM
[53]
  GI50: 6.73 µM
[54]
  GI50: 7.93 µM
[55]
  GI50: 3.85 µM

## COc1ccc(C(=O)N2c3ccccc3Sc3ccccc32)cc1F
[1]
  GI50: 0.229 µM
[2]
  GI50: 0.543 µM
[3]
  GI50: 0.267 µM
[4]
  GI50: 0.251 µM
[56]
  IC50: 9.48 µM
[5]
  GI50: 0.964 µM
[6]
  GI50: 0.819 µM
[7]
  GI50: 0.382 µM
[8]
  GI50: 0.561 µM
[9]
  GI50: 0.991 µM
[10]
  GI50: 0.112 µM
[11]
  GI50: 0.59 µM
[12]
  inhibition: 95%
[13]
  GI50: 0.375 µM
[14]
  GI50: 0.322 µM
[15]
  GI50: 0.312 µM
[16]
  GI50: 0.285 µM
[17]
  GI50: 0.29 µM
[18]
  GI50: 0.419 µM
[19]
  GI50: 0.572 µM
[20]
  GI50: 0.442 µM
[21]
  GI50: 0.522 µM
[57]
  GI50: 0.355 µM
[22]
  GI50: 0.211 µM
[58]
  GI50: 0.249 µM
[23]
  GI50: 0.57 µM
[24]
  GI50: 0.316 µM
[25]
  GI50: 0.271 µM
[26]
  GI50: 0.216 µM
[27]
  GI50: 0.209 µM
[28]
  GI50: 0.102 µM
[29]
  GI50: 0.671 µM
[30]
  GI50: 0.259 µM
[31]
  GI50: 0.143 µM
[32]
  GI50: 0.335 µM
[33]
  GI50: 0.539 µM
[34]
  GI50: 0.244 µM
[35]
  GI50: 0.314 µM
[36]
  GI50: 0.384 µM
[37]
  GI50: 0.3 µM
[38]
  GI50: 0.59 µM
[39]
  GI50: 0.468 µM
[40]
  GI50: 0.272 µM
[41]
  GI50: 0.222 µM
[42]
  GI50: 0.393 µM
[43]
  GI50: 0.604 µM
[44]
  GI50: 0.303 µM
[45]
  GI50: 0.358 µM
[46]
  GI50: 0.239 µM
[47]
  GI50: 0.035 µM
[48]
  GI50: 0.518 µM
[49]
  GI50: 0.405 µM
[50]
  GI50: 1.89 µM
[51]
  GI50: 0.76 µM
[52]
  GI50: 0.372 µM
[53]
  GI50: 0.586 µM
[54]
  GI50: 6.56 µM
[55]
  GI50: 2.22 µM
